One assay concerns human skin explants. The experiment in a line: Melanin content test on human skin explants exposed to blue light. Type of assay: cell-based. As to conditions: human skin explants treated with C11 or C12, blue light at 412 nm or 450 nm, total 120 J/cm^2. The method, then:
The tests were carried out on human skin explants obtained from plastic surgery. The biopsies are divided into explants of 8 mm diameter and kept for survival in complete medium. at 37° C. and in an atmosphere of 5% CO2.
The skin explants are exposed to blue light, at 412 nm or 450 nm or kept in the dark (control) for 5 hours per day, for 3 days, representing a total irradiation of 120 J/cm^2. Before each exposure, the explants are treated overnight with the compositions C11 or C12.
24 hours after the last irradiation, the explants are collected and incubated in a 1 M NaOH solution at 80° C. for 3 hours, allowing the melanin to solubilize. […]
(§1) The coloring intensity determined by the optical density measured at 405 nm is directly correlated to the melanin content.
(§2) The melanin content is calculated by relating the absorbance value to that of the negative control.
(§3) The percentage variation in melanin content compared to the blank test or the negative control is calculated according to the following equation: […]

Assay [1] relates to human epidermal melanocytes (HEM). Put plainly: Melanin content test on human epidermal melanocytes exposed to blue light. The following applies: total 120 J/cm^2. Type of assay: cell-based. The method, then:
In the following experimental part, the preventive effect of ε-viniferine (trans-ε-viniferine) at different concentrations, on the damage caused by blue light at two wavelengths (412 nm, characteristic of solar blue light and 450 nm, characteristic of blue light from screens) was evaluated by means of a test for determining the melanin content of cells treated with a composition of the invention. In order to determine the maximum concentrations to be tested, the toxicity of different concentrations of the compositions tested was first evaluated via the MTT test, a live cell counting test involving the MTT tetrazolium salt as a reagent and well known to the professional.
The tests were carried out on human epidermal melanocytes (HEM), which are cells that produce melanin and are therefore responsible for skin pigmentation. […]
The HEM cells were cultured at 37° C., in a 5% CO2 atmosphere and treated with a determined concentration of the composition C1 or the composition C2. […]
as §1, §2, §3

Each structure is given as a SMILES string.

On to `Oc1ccc(/C=C/c2cc(O)cc3c2[C@@H](c2cc(O)cc(O)c2)[C@H](c2ccc(O)cc2)O3)cc1` (relative stereo) [ε-viniferine, trans-ε-viniferine], for which the “melanin content relative to explant not exposed to blue light” value in the assay on human skin explants is “lower the melanin content to the content of an explant not exposed to blue light”. Moreover, the “production of melanin (optical density at 405 nm)” value in assay [1] (HEM cells treated 24 h before exposure to blue light at 412 nm or 450 nm, 5 h per day for 3 days, versus untreated irradiated cells (NT)) is “significantly reduce the production of melanin”. Also, the “melanin content relative to culture not exposed to blue light” value in assay [1] (HEM cells, blue light at 450 nm) is recorded as “lower the melanin content to the content of a culture of melanocytes not exposed to blue light”.

For the origin of these results see US20250275910A1, “Cosmetic application of viniferine” (Tomcat International Limited, priority 2021, published 2025).
